Laboratory results as given in patent US20240238380A1, “COMPOSITION FOR COMBINATION THERAPY COMPRISING GROWTH DIFFERENTIATION FACTOR-15 VARIANT AND GLUCAGON-LIKE PEPTIDE-1 RECEPTOR AGONIST” (YUHAN CORPORATION, priority 2021, published 2024).
Marks after values point to notes of the source that are not given here.

How the values were obtained:
Assay type in all cases: in vivo
[1] = Anti-obesity effect by repeated administration alone and in combination with semaglutide in ob/ob mice (Example 5)
Description: The ob/ob mouse has a mutation in the leptin gene resulting in leptin deficiency, and are characterized by hyperglycemia, insulin resistance, overeating, and obesity. 5-week-old male ob/ob mice (Jackson Laboratory, USA) were purchased from Raon Bio (Animal Inc., Republic of Korea). The ob/ob mice were acclimatized with normal food (Teklad Certified Irradiated Global 18% Protein Rodent Diet, 2918C, Harlan Co., USA) for 4 weeks, and drug treatment was started at 9 weeks of age. On the day before drug treatment, the mice were grouped based on the body weight of individual mice and random blood glucose levels determined by sampling at the tail vein (n=6 per group). Thereafter, 1 and 10 nmol/kg of FM9-6+Fc_hole alone, 10 and 30 nmol/kg of semaglutide alone, and FM9-6+Fc_hole and semaglutide at doses of 1+10 and 10+10 nmol/kg in combination were subcutaneously administered thereto a total of 10 times every 3 days (Q3D), and body weight and food intake were measured every day or every 3 days during the experimental period (29 days). Here, DPBS (Dulbecco's phosphate-buffered saline, Gibco, USA) was administered for vehicle treatment.

[2] = Inhibitory effect on gastric emptying (acetaminophen exposure) in normal rats (Example 8); conditions: rats; for gastric emptying (in words): vs. negative control
Experimental: Therefore, this example was performed to investigate the inhibitory effect on gastric emptying when the novel long-acting GDF15 fusion protein was administered at the doses equal to the effective dose, higher than the maximum effective dose, or in combination with a GLP-1 receptor agonist to rats. 6-week-old male SD rats (Orient Bio, Republic of Korea) were purchased from Hallym Lab. Animal Inc., Republic of Korea. Animals were acclimated for 7 days. On the day of drug administration, the rats were grouped based on the average body weight of individual rats (n=5 per group) and fasted for at least 6 hours before oral administration of acetaminophen. Then, 0.1, 1, and 10 nmol/kg of FM9-6+Fc_hole, 10 nmol/kg of semaglutide (long-acting GLP-1 derivative, SEQ ID NO: 114), and combination of FM9-6+Fc_hole and semaglutide (1+10 nmol/kg) were subcutaneously administered. The semaglutide was Ozempic® (semaglutide) from Novo NorDisk. As a negative control drug, D-PBS (normal vehicle) was subcutaneously administered, and as a positive control drug, 30 mg/kg of loperamide was orally administered 45 minutes before acetaminophen administration. On 3, 24 and 72 hours after a single dose of the test articles, acetaminophen was orally administered at 100 mg/kg to rats, and blood samples were collected before and at 30, 60, 90, 120 and 150 minutes after acetaminophen administration. The plasma concentration of acetaminophen was analyzed, and the pharmacokinetic profiles and the systemic exposures of acetaminophen were compared to evaluate the inhibitory effect on gastric emptying among the groups.

[3] = Anti-obesity effect alone and in combination with semaglutide in diet-induced obese (DIO) mice (Example 4); conditions: for Change in body weight (%) vs. day 0, Maximum efficacy: 8 weeks
Description: Diet-induced obese (DIO) mice, obtained by feeding mice with high-fat food, are characterized by obesity, hyperglycemia, and insulin resistance. Diet-induced obese mice (Taconic, USA) resulting from feeding C57BL/6N mice with high-fat food (60 kcal % fat, Research Diets, Cat #D12492, USA) for 8 weeks were purchased from Raon Bio (Animal Inc., Republic of Korea). The diet-induced obese mice were additionally fed with 60% high-fat food for 5 weeks after arrival, and then used in the present test. On the day before drug treatment, the mice were grouped based on the average body weight of individual mice (n=6 per group), after which 10 and 30 nmol/kg of FM9-6+Fc_hole alone, 10 and 30 nmol/kg of semaglutide (long-acting GLP-1 derivative, SEQ ID NO: 114) alone as a control drug, and FM9-6+Fc_hole and semaglutide were administered subcutaneously every 2 days (Q2D) for a total of 8 weeks in a combination of 10+10 and 30+30 nmol/kg. The semaglutide that was used in the test was Ozempic® (semaglutide) from Novo NorDisk. Here, for vehicle treatment, DPBS (Dulbecco's phosphate-buffered saline, Gibco, USA) was subcutaneously administered every 2 days (Q2D). Body weight was measured every 2 days from the first day of drug treatment to day 54, and the results thereof are shown in Table 4 below.

[4] = Anti-obesity effect alone and in combination with semaglutide or tirzepatide in DIO mice (Example 7); conditions: 10 nmol/kg s.c. Q3D
Description: Diet-induced obese (DIO) mice, obtained by feeding mice with high-fat diet, are characterized by obesity, hyperglycemia, and insulin resistance. Diet-induced obese mice (Taconic, USA) resulting from feeding C57BL/6N mice with high-fat food (60 kcal % fat, Research Diets, Cat #D12492, USA) for 8 weeks were purchased from Raon Bio (Animal Inc., Republic of Korea). The diet-induced obese mice were additionally fed with 60% high-fat food for 5 weeks after arrival, and then used in the present test. On the day before drug treatment, the mice were grouped based on the average body weight of individual mice (n=6 per group), after which 0.1 and 1 nmol/kg of FM9-6+Fc_hole alone, 10 nmol/kg of semaglutide (long-acting GLP-1 derivative, SEQ ID NO: 114) and 10 nmol/kg of tirzepatide (long-acting GLP-1/GIP derivative, SEQ ID NO: 117) alone as control drugs, FM9-6+Fc_hole and semaglutide at doses of 0.1+10 and 1+10 nmol/kg in combination, and FM9-6+Fc_hole and tirzepatide at doses of 1+10 nmol/kg in combination were subcutaneously administered thereto every 3 days (Q3D) for a total of 4 weeks. The semaglutide that was used in the test was Ozempic® (semaglutide) from Novo NorDisk, and the tirzepatide that was used was a material synthesized by MedChemExpress (HY-P1731B, USA). Here, DPBS (Dulbecco's phosphate-buffered saline, Gibco, USA) was administered for vehicle treatment, and, during the experimental period (26 days), body weight was measured every day and food intake was measured every 3 days.

[5] = Anti-obesity and metabolic parameter effects alone and in combination with large dose of semaglutide in ob/ob mice (Example 6); conditions: 30 nmol/kg s.c. Q3D
Description: 5-week-old male ob/ob mice (Jackson Laboratory, USA) were purchased from Raon Bio (Animal Inc., Republic of Korea). The ob/ob mice were acclimatized with normal chow or normal chow diet (Teklad Certified Irradiated Global 18% Protein Rodent Diet, 2918C, Harlan Co., USA) for 5 weeks, and drug treatment was started at 10 weeks of age. On the day before drug treatment, the mice were grouped based on the body weight of individual mice and random blood glucose levels determined by sampling at the tail vein (n=6 per group). Thereafter, 1 nmol/kg of FM9-6+Fc_hole alone, 30 nmol/kg of semaglutide alone, and FM9-6+Fc_hole and semaglutide in combination (1+30 nmol/kg) were subcutaneously administered thereto a total of 9 times every 3 days (Q3D), and body weight, food intake, and non-fasting blood glucose were measured every day or every 3 days during the experimental period (24 days). Here, DPBS (Dulbecco's phosphate-buffered saline, Gibco, USA) was administered for vehicle treatment.

semaglutide [reference compound]
Change in body weight (%) vs. ob/ob control, Maximum efficacy ([1]; 10 nmol/kg s.c. Q3D): −10.04 (On Day 25)*** % | Change in body weight (%) vs. ob/ob control, Efficacy on Day 29 ([1]; 10 nmol/kg s.c. Q3D): −6.88* % | Change in body weight (%) vs. ob/ob control, Maximum efficacy ([1]; 30 nmol/kg s.c. Q3D): −11.38 (On Day 25)**** % | Change in body weight (%) vs. ob/ob control, Efficacy on Day 29 ([1]; 30 nmol/kg s.c. Q3D): −9.92**** % | AUClast of acetaminophen (μg · min/mL), 3 hr ([2]; 10 nmol/kg s.c. single dose, acetaminophen 3 hr after dose): 266.43*** μg · min/mL | AUClast of acetaminophen (μg · min/mL), 24 hr ([2]; 10 nmol/kg s.c. single dose, acetaminophen 24 hr after dose): 2577.72 µg·min/mL | AUClast of acetaminophen (μg · min/mL), 72 hr ([2]; 10 nmol/kg s.c. single dose, acetaminophen 72 hr after dose): 3354.48 µg·min/mL | gastric emptying (in words) ([2]; 24 and 72 hours after administration): gastric emptying was restored | gastric emptying (in words) ([2]; 3 hours after administration): inhibition of gastric emptying | Change in body weight (%) vs. day 0, Maximum efficacy ([3]; 10 nmol/kg s.c. Q2D): −26.71 (On Day 30)**** % | Change in body weight (%) vs. day 0, Efficacy on Day 54 ([3]; 10 nmol/kg s.c. Q2D): −17.34**** % | Change in body weight (%) vs. day 0, Maximum efficacy ([3]; 30 nmol/kg s.c. Q2D): −28.13 (On Day 21)**** % | Change in body weight (%) vs. day 0, Efficacy on Day 54 ([3]; 30 nmol/kg s.c. Q2D): −13.40**** % | Change in body weight (%) vs. day 0, Maximum efficacy ([4]; 4 weeks): −18.95 (On Day 19)**** % | Change in body weight (%) vs. day 0, Efficacy on Day 26 ([4]; Day 26): −17.69**** % | Change in body weight (%) vs. ob/ob control, Efficacy on Day 24 [5]: −10.08**** % | Mean of random blood glucose levels (mg/dL), Efficacy on Day 24 [5]: 155.7**** mg/dL
